Laboratory results from the kinase profiling compilation of Christmann-Franck et al. (2016).

System: AKT2 (human), P31751 [S474D]
Assay: radiometric filter-binding kinase assay
Conditions: ATP 50 µM

Chain of AKT2 (human), P31751 [S474D] (P31751 whole entry S474D, looked up): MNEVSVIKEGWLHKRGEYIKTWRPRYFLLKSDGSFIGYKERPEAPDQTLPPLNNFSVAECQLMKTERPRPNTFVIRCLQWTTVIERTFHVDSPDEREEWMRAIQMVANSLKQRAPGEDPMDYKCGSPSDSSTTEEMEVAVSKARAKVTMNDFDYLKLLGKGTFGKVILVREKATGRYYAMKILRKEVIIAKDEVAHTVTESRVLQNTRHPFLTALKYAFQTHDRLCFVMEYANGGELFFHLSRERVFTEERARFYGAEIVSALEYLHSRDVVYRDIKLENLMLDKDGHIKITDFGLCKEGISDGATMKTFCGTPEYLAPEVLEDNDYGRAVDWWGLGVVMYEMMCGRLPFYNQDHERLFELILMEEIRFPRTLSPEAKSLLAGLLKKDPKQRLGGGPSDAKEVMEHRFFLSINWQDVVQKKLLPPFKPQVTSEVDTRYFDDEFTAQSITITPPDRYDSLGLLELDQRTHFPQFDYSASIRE

## CCc1cncnc1N1CCN(Cc2nc3cc(C(F)(F)F)ccc3[nH]2)CC1
Compound 0.1 µM
  residual activity: 74%
Compound 1.0 µM
  residual activity: 73%
Compound 10.0 µM
  residual activity: 60%
